± gives the standard deviation of the averaged measurements.
What was measured:
YM155 = compound: COCC[n+]1c2c(n(Cc3cnccn3)c1C)C(=O)c1ccccc1C2=O [YM155]; experiment: area under dose-response curve of surviving fraction (unscaled, Aref=0) (surviving fraction x log10(nM)); higher = more resistant; conditions: exposure time: 5 days; dose range 0.5-1000 nM
Method in brief: (§1)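 Surviving fractions were fitted by 3-parameter logistic regression in the drc R package to give dose-response survival curves. They came from tumour cell lines treated for five days with eight inhibitor concentrations from 0.5 to 1000 nM and read by CellTiter-Glo luminescence against DMSO-only wells. The area under the curve is the unscaled activity area. It was calculated over log10 dose with Aref = 0.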

[1] = compound: CC(=O)NCC(=O)N1[C@@H]2CC[C@H]1c1ccc(Nc3ncc(C(F)(F)F)c(NC4CCC4)n3)cc12; experiment: as above; conditions: exposure time: 5 days; dose range 0.5-1000 nM
Method in brief: as §1

CAMPTOTHECIN = compound: CC[C@@]1(O)C(=O)OCc2c1cc1n(c2=O)Cc2cc3ccccc3nc2-1 [CAMPTOTHECIN]; experiment: as above; conditions: exposure time: 5 days; dose range 0.5-1000 nM
Method in brief: as §1

CARBOPLATIN = compound: O=C(O)C1(C(=O)O)CCC1.[NH2-].[NH2-].[Pt+2] [CARBOPLATIN]; experiment: as above; conditions: exposure time: 5 days; dose range 0.5-1000 nM
Method in brief: as §1

OSI-906 [2] = compound: T1, C[C@]1(O)C[C@@H](c2nc(-c3ccc4ccc(-c5ccccc5)nc4c3)c3c(N)nccn32)C1 [OSI-906]; experiment: as above; conditions: exposure time: 5 days; dose range 0.5-1000 nM
Method in brief: as §1

PACLITAXEL = compound: CC(=O)O[C@H]1C(=O)[C@@]2(C)[C@H]([C@H](OC(=O)c3ccccc3)[C@]3(O)C[C@H](OC(=O)[C@H](O)[C@@H](NC(=O)c4ccccc4)c4ccccc4)C(C)=C1C3(C)C)[C@]1(OC(C)=O)CO[C@@H]1C[C@@H]2O [PACLITAXEL]; experiment: as above; conditions: exposure time: 5 days; dose range 0.5-1000 nM
Method in brief: as §1

CELECOXIB = compound: Cc1ccc(-c2cc(C(F)(F)F)nn2-c2ccc(S(N)(=O)=O)cc2)cc1 [CELECOXIB]; experiment: as above; conditions: exposure time: 5 days; dose range 0.5-1000 nM
Method in brief: as §1

[3] = compound: CC(=O)c1c(C)c2cnc(Nc3ccc(N4CCNCC4)cn3)nc2n(C2CCCC2)c1=O; experiment: as above; conditions: exposure time: 5 days; dose range 0.5-1000 nM
Method in brief: as §1

OSI-906 [4] = compound: T1, OSI-906; experiment: surviving fraction relative to DMSO-only wells; higher = less growth inhibition; conditions: exposure time: 5 days
Method in brief: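 Inhibitors at 0.5, 1, 5, 10, 50, 100, 500 and 1000 nM were applied continuously for five days to tumour cell lines seeded in log phase at 250–500 cells per well in 384-well plates 24 hours earlier. Viability was measured by CellTiter-Glo luminescence and expressed as surviving fraction relative to the median of DMSO-only wells. Luminescence was taken after 10 minutes at room temperature.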

GEFITINIB = compound: COc1cc2ncnc(Nc3ccc(F)c(Cl)c3)c2cc1OCCCN1CCOCC1 [GEFITINIB]; experiment: area under dose-response curve of surviving fraction (unscaled, Aref=0) (surviving fraction x log10(nM)); higher = more resistant; conditions: exposure time: 5 days; dose range 0.5-1000 nM
Method in brief: as §1

Test System | area under dose-response curve (YM155) | area under dose-response curve [1] | area under dose-response curve (CAMPTOTHECIN) | area under dose-response curve (CARBOPLATIN) | area under dose-response curve (OSI-906 [2]) | area under dose-response curve (PACLITAXEL) | area under dose-response curve (CELECOXIB) | area under dose-response curve [3] | surviving fraction (OSI-906 [4]; 0.5 nM) | surviving fraction (OSI-906 [4]; 1 nM) | surviving fraction (OSI-906 [4]; 5 nM) | surviving fraction (OSI-906 [4]; 10 nM) | surviving fraction (OSI-906 [4]; 50 nM) | surviving fraction (OSI-906 [4]; 100 nM) | surviving fraction (OSI-906 [4]; 500 nM) | surviving fraction (OSI-906 [4]; 1000 nM) | area under dose-response curve (GEFITINIB)
U2OS BONE | 1.16 | 2.43 | 2.05 | 3.52 | 3.08 | 1.15 | 3.42 | 3.41 | 0.979 ± 0.038 | 0.949 ± 0.031 | 0.958 ± 0.013 | 0.939 ± 0.021 | 0.967 ± 0.038 | 0.914 ± 0.026 | 0.872 ± 0.026 | 0.863 ± 0.026 | –
ASKA SYNOVIAL | 1.57 | 2.15 | 0.904 | 3.72 | 3.41 | 0.983 | 3.87 | – | 0.934 ± 0.059 | 0.99 ± 0.057 | 1.01 ± 0.011 | 1.07 ± 0.071 | 1.11 ± 0.13 | 1.12 ± 0.045 | 0.966 ± 0.083 | 0.97 ± 0.029 | 3.71
BT549 BREAST | 1.74 | 2.58 | 0.714 | 3.61 | 3.07 | 0.396 | 3.78 | – | 0.867 ± 0.08 | 0.792 ± 0.027 | 0.836 ± 0.048 | 0.88 ± 0.13 | 1.11 ± 0.18 | 0.984 ± 0.059 | 1.1 ± 0.096 | 0.94 ± 0.067 | 3.57
SNU475 LIVER | 1.91 | 2.85 | 1.18 | 3.44 | 3.01 | 0.893 | 3.49 | 3.4 | 0.89 ± 0.023 | 0.887 ± 0.037 | 0.887 ± 0.012 | 0.869 ± 0.054 | 0.942 ± 0.037 | 0.921 ± 0.013 | 0.944 ± 0.011 | 0.963 ± 0.015 | –
HCC202 BREAST | – | 4.5 | – | – | – | 1.37 | – | 3.11 | 0.918 ± 0.1 | 0.867 ± 0.2 | 0.966 ± 0.052 | 0.8315 ± 0.0035 | 1.1 ± 0.021 | 1.07 ± 0.15 | 0.862 ± 0.18 | 0.839 ± 0.18 | –
CHLA90 AUTONOMIC GANGLIA | 1.31 | 2.51 | 1.21 | – | 2.73 | 1.13 | 3.34 | 3.14 | 0.883 ± 0.046 | 0.904 ± 0.019 | 0.862 ± 0.036 | 0.828 ± 0.08 | 0.832 ± 0.059 | 0.792 ± 0.084 | 0.78 ± 0.056 | 0.725 ± 0.082 | 2.9
MDAMB157 BREAST | 1.53 | 2.36 | 1.4 | – | 2.98 | 0.654 | – | 3.21 | 0.892 ± 0.048 | 0.875 ± 0.11 | 0.949 ± 0.058 | 0.946 ± 0.079 | 0.957 ± 0.11 | 0.855 ± 0.056 | 0.872 ± 0.037 | 0.884 ± 0.086 | 3.2
HT1080 SOFT TISSUE | 1.04 | 2.39 | 1.51 | 3.51 | 3.17 | 0.5 | – | 3.28 | 1 ± 0.042 | 1.02 ± 0.023 | 1.02 ± 0.021 | 1 ± 0.017 | 0.979 ± 0.039 | 0.921 ± 0.027 | 0.899 ± 0.03 | 0.869 ± 0.057 | –
MFM223 BREAST | 0.996 | 2.67 | 1.92 | 3.74 | 2.94 | 0.825 | – | – | 0.716 ± 0.049 | 0.791 ± 0.1 | 0.768 ± 0.092 | 0.811 ± 0.15 | 1.05 ± 0.095 | 1.02 ± 0.088 | 1.09 ± 0.013 | 1.04 ± 0.017 | 3.88
HS578T BREAST | 2.61 | 2.72 | 1.81 | – | 3.11 | 0.471 | 3.16 | 3.49 | 0.846 ± 0.12 | 0.968 ± 0.16 | 0.865 ± 0.12 | 0.846 ± 0.049 | 1.09 ± 0.13 | 0.931 ± 0.19 | 1.07 ± 0.073 | 1.15 ± 0.18 | 3.1
BT20 BREAST | 0.651 | 2.05 | 0.907 | – | 2.91 | 0.614 | 3.78 | – | 0.736 ± 0.051 | 0.724 ± 0.058 | 0.776 ± 0.05 | 0.763 ± 0.073 | 1 ± 0.031 | 1.05 ± 0.095 | 1.23 ± 0.05 | 1.28 ± 0.04 | 3.62
SUM159 BREAST | 1.25 | 2.79 | 1.29 | – | 3.15 | 1.29 | 3.58 | 3.03 | 0.9647 ± 0.0076 | 0.948 ± 0.021 | 0.964 ± 0.021 | 0.944 ± 0.036 | 0.977 ± 0.013 | 0.95 ± 0.021 | 0.953 ± 0.012 | 0.927 ± 0.016 | 3.52
SG27 HEADNECK | 1.43 | 3.14 | 2.66 | 3.6 | – | 3.02 | 3.88 | 3.52 | 1.1 ± 0.12 | 1.08 ± 0.064 | 0.916 ± 0.071 | 0.966 ± 0.059 | 1 ± 0.054 | 0.946 ± 0.044 | 0.807 ± 0.086 | 0.617 ± 0.069 | 3.65
VCAP PROSTATE | 0.945 | 2.52 | 1.76 | 3.55 | 2.78 | 0.687 | – | – | 0.908 ± 0.023 | 0.867 ± 0.039 | 0.962 ± 0.028 | 0.999 ± 0.14 | 0.942 ± 0.16 | 0.83 ± 0.064 | 0.399 ± 0.046 | 0.188 ± 0.029 | 3.75
HS57T BREAST | – | – | – | – | – | – | – | – | 0.862 ± 0.014 | 0.89 ± 0.068 | 0.869 ± 0.047 | 0.902 ± 0.052 | 0.934 ± 0.032 | 0.881 ± 0.023 | 0.915 ± 0.047 | 0.826 ± 0.082 | –
SIHA CERVIX | 1.48 | 2.88 | 1.73 | 3.82 | 3.17 | 0.974 | 3.52 | – | 0.931 ± 0.067 | 0.888 ± 0.012 | 0.992 ± 0.11 | 0.886 ± 0.056 | 1.04 ± 0.057 | 1.01 ± 0.065 | 0.935 ± 0.046 | 0.966 ± 0.026 | 3.44
YAMATO SYNOVIAL | 1.2 | 2.87 | 0.991 | 4.26 | – | 1.69 | 4.62 | 3.92 | 0.866 ± 0.13 | 0.936 ± 0.04 | 0.995 ± 0.069 | 0.986 ± 0.082 | 1.36 ± 0.22 | 1.46 ± 0.13 | 1.17 ± 0.21 | 1.12 ± 0.077 | 4.25
SCC003 HEADNECK | 1.38 | 2.69 | 1.77 | – | 3.08 | 1.13 | 3.59 | 3.56 | 0.796 ± 0.018 | 0.865 ± 0.028 | 0.88 ± 0.099 | 0.87 ± 0.011 | 1.02 ± 0.022 | 1.04 ± 0.013 | 0.976 ± 0.04 | 0.845 ± 0.04 | 2.89
